Earlier results, collected in US9693945B1, “Method of solubilizing a composition of a cleaned photochromic dye suitable for use on human skin” (priority 2016, dated 2017).

Tested on: Salmonella typhimurium
Settings: background on compounds formerly used in commercial products

NC(=O)/C(=C\c1ccc([N+](=O)[O-])o1)c1ccco1 [furylfuramide]
Ames test outcome (identified as potential carcinogen): positive

O=P(OCC(Br)CBr)(OCC(Br)CBr)OCC(Br)CBr (centres unmarked) [tris (2,3-dibromopropyl) phosphate]
Ames test outcome (identified as potential carcinogen): positive
